Read-outs that look alike come from different tables or passages of the source.
Experiments:
[1] = system: L-363 human Multiple Myeloma cell line; test: cell proliferation (CellTiterGlo), single agents and combinations, L-363; assay type: cell-based
Description: (§1) Materials and methods. Exponentially growing human breast cancer (Mcf-7), human ovarian cancer (A-2780), human multiple myeloma (L-363), human colorectal cancer (HCT-116) and human melanoma (A-375) cell lines were seeded and incubated at 37° C. in a humidified 5% CO2 atmosphere. Drugs were added to the experimental culture, and incubations were carried out at 37° C. for 72 hours in the dark. Scalar doses of the compound of formula (I) and antineoplastic agents were added to the medium starting from 24 hours after seeding. Drug solutions were prepared immediately before use. At the end of treatment, cell proliferation was determined by an intracellular adenosine triphosphate monitoring system (CellTiterGlo-Promega) using an Envision (PerkinElmer) reader. Inhibitory activity was evaluated comparing treated versus control data using the Assay Explorer (MDL) program. The dose inhibiting 50% of cell growth was calculated using sigmoidal interpolation curve. Combination indices (C.I.) were calculated using a proprietary computer program for multiple drug effect analysis based on the equation of Chou-Talalay (Adv Enzyme Regul 1984;22:27-55) for mutually nonexclusive drugs, where a C.I. of <1 indicates a more than additive effect: C.I.: >3 strong antagonism; 1.3-3 antagonism; 1.2-0.8 additivity; 0.8-0.3 synergism; <0.3 strong synergism.

[2] = system: Mcf-7 human breast adenocarcinoma cell line; test: cell proliferation (CellTiterGlo), single agents and combinations, Mcf-7; assay type: cell-based
Description: (§2) Materials and methods. […] Drugs were added to the experimental culture, and incubations were carried out at 37° C. for 72 hours in the dark. […] Drug solutions were prepared immediately before use. At the end of treatment, cell proliferation was determined by an intracellular adenosine triphosphate monitoring system (CellTiterGlo-Promega) using an Envision (PerkinElmer) reader. Inhibitory activity was evaluated comparing treated versus control data using the Assay Explorer (MDL) program. The dose inhibiting 50% of cell growth was calculated using sigmoidal interpolation curve.

[3] = system: A2780 human ovarian carcinoma cell line; test: cell proliferation (CellTiterGlo), single agents and combinations, A2780; assay type: cell-based; details: single agent, 72 hours
Description: as §1

[4] = system: HCT116 human colon carcinoma cell line; test: cell proliferation (CellTiterGlo), single agents and combinations, HCT116; assay type: cell-based
Description: as §2

[5] = system: A375 human melanoma cell line; test: cell proliferation (CellTiterGlo), single agents and combinations, A375; assay type: cell-based; details: A-375, 72 h
Description: as §2

[6] = system: MX-1 human breast carcinoma; test: tumor growth delay, MX-1 xenograft, combination with bevacizumab; assay type: in vivo; details: MX-1 in CD-1 Nu/Nu female mice, time to reach 1 g
Description: (§3) Animals were examined regularly for the appearance of tumors. The treatment started when tumors were palpable. Compound of formula (I) was administered by oral route in a volume of 10 ml/kg at the daily dose of 20 mg/kg on days 2, 4, 6, 8, 10 and 12. Bevacizumab was administered by intravenous route at the dose of 20 mg/kg on days 1, 5, 9 and 13. When combined, compound of formula (I) was administered on days 2, 4, 6, 8, 10 and 12 and bevacizumab on days 1, 5, 9 and 13. […] Tumor growth was assessed by caliper.

[7] = toxicity on the basis of body weight reduction, MX-1 study with bevacizumab; assay type: in vivo
Description: as §3

[8] = system: HCT-116 human colon cancer tumors; test: tumor growth delay, HCT-116 xenograft, combination with irinotecan; assay type: in vivo; details: HCT-116 in Balb Nu/Nu male mice, time to reach 1 g
Description: (§4) Balb, Nu/Nu male mice, from Harlan (Italy), were maintained in agreement with the European Communities Council Directive no. 86/609/EEC, in cages with paper filter cover, food and bedding sterilized and acidified water. Fragments of HCT-116 human colon cancer tumors were implanted subcutaneously. The treatment started when tumors were palpable. […] Irinotecan was administered by intravenous route at the dose of 45 mg/kg on days 1, 5, 9. […] Tumor growth was assessed by caliper.

[9] = toxicity on the basis of body weight reduction, HCT-116 study with irinotecan; assay type: in vivo
Description: as §4

[10] = system: MX-1 human breast carcinoma; test: tumor growth delay, MX-1 xenograft, combination with docetaxel; assay type: in vivo; details: MX-1 in CD1 Nu/Nu female mice, time to reach 1 g
Description: (§5) CD1 Nu/Nu female mice were obtained from Charles River, Italy, The animals were maintained in cages using steam autoclaved (sterile) bedding, sterilized diet and water were offered ad libitum. MX-1 human breast carcinoma (from American Type Culture Collection) was maintained by subcutaneous (SC) transplantation in athymic mice. Viable MX-1 tumor fragments (weighting 20-30 mg) were obtained aseptically from stock tumors and transplanted subcutaneously by trocar implantation into the left flank of athymic nude mice. Animals were examined regularly for the appearance of tumors.
(§6) Docetaxel was administered by intravenous route at the dose of 5 mg/kg on days 1, 8, 15. […] Tumor growth and body weight were measured every 3 days, Tumor growth was assessed by caliper. The two diameters were recorded and the tumor weight was calculated according to the following formula: length (mm)×width^2/2. The effect of the antitumor treatment was evaluated as the delay in the onset of an exponential growth of the tumor (see for references Anticancer drugs 7:437-60, 1996). This delay (T-C value) was defined as the difference of time (in days) required for the treatment group (T) and the control group (C) tumors to reach a predetermined size (1 g). Toxicity was evaluated on the basis of body weight reduction.

[11] = female, CD1 Nu/Nu, mouse, in vivo
Description: as §5, §6

[12] = 20 mg/kg oral on days 2, 4, 6, 8, 10, 12

CC1(C)CCC(c2ccc(Cl)cc2)=C(CN2CCN(c3ccc(C(=O)NS(=O)(=O)c4ccc(N[C@H](CCN5CCOCC5)CSc5ccccc5)c(S(=O)(=O)C(F)(F)F)c4)cc3)CC2)C1 [ABT-263, Navitoclax]
IC50 ([1]; L-363, single agent, 72 hours, Table 10, read-out: IC50 (μM) ABT-263): 7.3 µM

NC(=O)c1cc(-c2ccnc(N)n2)[nH]c1-c1ccc(Cl)cc1Cl [Compound of formula (I), 5-(2-Amino-pyrimidin-4-yl)-2-(2,4-dichloro-phenyl)-1H-pyrrole-3-carboxylic acid amide]
IC50 ([2]; Homo sapiens, MCF7, 72 h, read-out: IC50 (μM) Compound of formula (I), Mcf-7, single agent, Table 1 (gemcitabine experiment)): 1.1 µM
IC50 ([2]; Homo sapiens, MCF7, 72 h, read-out: IC50 (μM) Compound of formula (I), Mcf-7, single agent, Table 2 (cisplatin experiment)): 1.7 µM
IC50 ([2]; Homo sapiens, MCF7, 72 h, read-out: IC50 (μM) Compound of formula (I), Mcf-7, single agent, Table 4 (SN-38 experiment)): 0.77 µM
IC50 ([2]; Homo sapiens, MCF7, 72 h, read-out: IC50 (μM) Compound of formula (I), Mcf-7, single agent, Table 5 (etoposide experiment)): 1.11 µM
IC50 ([2]; Homo sapiens, MCF7, 72 h, read-out: IC50 (μM) Compound of formula (I), Mcf-7, single agent, Table 6 (paclitaxel experiment)): 0.67 µM
IC50 ([2]; Homo sapiens, MCF7, 72 h, read-out: IC50 (μM) Compound of formula (I), Mcf-7, single agent, Table 7 (erlotinib experiment)): 1.87 µM
IC50 ([2]; Homo sapiens, MCF7, 72 h, read-out: IC50 (μM) Compound of formula (I), Mcf-7, single agent, Table 8 (bortezomib experiment)): 0.767 µM
IC50 ([3]; Homo sapiens, Table 3 (cisplatin experiment), read-out: IC50 (μM) Compound of formula (I)): 0.52 µM
IC50 ([4]; HCT-116, 72 h, read-out: IC50 (μM) Compound of formula (I)): 0.8 µM
IC50 ([1]; L-363, 72 h, read-out: IC50 (μM) Compound of formula (I)): 0.38 µM
IC50 ([5]; read-out: IC50 (μM) Compound of formula (I), A375, single agent, Table 11 (dacarbazine, sequential experiment)): 1.21 µM
IC50 ([5]; read-out: IC50 (μM) Compound of formula (I), A375, single agent, Table 12 (dacarbazine, simultaneous experiment)): 0.86 µM
T-C [6, 12]: 13 days
Toxicity ([7]; female, CD-1 Nu/Nu, mouse, in vivo, po, 20 mg/kg): 0/7
T-C [8, 12]: 4 days
Toxicity ([9]; male, Balb Nu/Nu, mouse, in vivo, po, 20 mg/kg): 0/7
T-C ([10]; 20 mg/kg oral on days 2, 4, 6, 9, 11, 13): 10 days
Toxicity ([11]; po, 20 mg/kg): 0/7

Nc1ccn([C@@H]2O[C@H](CO)[C@@H](O)C2(F)F)c(=O)n1 [Gemcitabine, gemcitabine]
IC50 ([2]; Homo sapiens, MCF7, Mcf-7, single agent, 72 hours, Table 1, read-out: IC50 (μM) Gemcitabine): 0.79 µM

CCc1c2c(nc3ccc(O)cc13)-c1cc3c(c(=O)n1C2)COC(=O)[C@]3(O)CC [SN38, SN-38]
IC50 ([2]; Mcf-7, single agent, 72 hours, Table 4, read-out: IC50 (μM) SN38): 0.024 µM

CC(C)C[C@H](NC(=O)[C@H](Cc1ccccc1)NC(=O)c1cnccn1)B(O)O [bortezomib]
IC50 ([2]; Homo sapiens, MCF7, Mcf-7, single agent, 72 hours, Table 8, read-out: IC50 (μM) bortezomib): 0.011 µM
IC50 ([4]; HCT-116, HCT116, single agent, 72 hours, Table 9, read-out: IC50 (μM) bortezomib): 0.009 µM

N.N.[Cl][Pt][Cl] [cisplatin]
IC50 ([2]; Mcf-7, single agent, 72 hours, Table 2, read-out: IC50 (μM) cisplatin): 10.2 µM
IC50 ([3]; Table 3, read-out: IC50 (μM) cisplatin): 3 µM

CN(C)/N=N/c1[nH]cnc1C(N)=O [dacarbazine]
IC50 ([5]; A375, single agent, Table 11 (sequential experiment), read-out: IC50 (μM) dacarbazine): 37 µM
IC50 ([5]; A375, single agent, Table 12 (simultaneous experiment), read-out: IC50 (μM) dacarbazine): 83 µM

CC(=O)O[C@@]12CO[C@@H]1C[C@H](O)[C@@]1(C)C(=O)[C@H](O)C3=C(C)[C@@H](OC(=O)[C@H](O)[C@@H](NC(=O)OC(C)(C)C)c4ccccc4)C[C@@](O)([C@@H](OC(=O)c4ccccc4)[C@H]21)C3(C)C [docetaxel]
T-C ([10]; 5 mg/kg intravenous on days 1, 8, 15): 9 days
Toxicity ([11]; iv, 5 mg/kg): 0/7

C#Cc1cccc(Nc2ncnc3cc(OCCOC)c(OCCOC)cc23)c1 [erlotinib]
IC50 ([2]; Homo sapiens, MCF7, Mcf-7, single agent, 72 hours, Table 7, read-out: IC50 (μM) erlotinib): 74.8 µM

COc1cc([C@@H]2c3cc4c(cc3[C@@H](O[C@@H]3O[C@@H]5CO[C@@H](C)O[C@H]5[C@H](O)[C@H]3O)[C@H]3COC(=O)[C@H]23)OCO4)cc(OC)c1O [etoposide]
IC50 ([2]; Homo sapiens, MCF7, Mcf-7, single agent, 72 hours, Table 5, read-out: IC50 (μM) etoposide): 12.7 µM

CCc1c2c(nc3ccc(OC(=O)N4CCC(N5CCCCC5)CC4)cc13)-c1cc3c(c(=O)n1C2)COC(=O)[C@]3(O)CC [irinotecan]
T-C ([8]; 45 mg/kg intravenous on days 1, 5, 9): 18 days
Toxicity ([9]; HCT-116 study, 45 mg/kg intravenous on days 1, 5, 9, body weight reduction): 0/7

CC(=O)O[C@H]1C(=O)[C@@]2(C)[C@H]([C@H](OC(=O)c3ccccc3)[C@]3(O)C[C@H](OC(=O)[C@H](O)[C@@H](NC(=O)c4ccccc4)c4ccccc4)C(C)=C1C3(C)C)[C@]1(OC(C)=O)CO[C@@H]1C[C@@H]2O [paclitaxel]
IC50 ([2]; Homo sapiens, MCF7, Mcf-7, single agent, 72 hours, Table 6, read-out: IC50 (μM) paclitaxel): 0.008 µM

bevacizumab
T-C ([6]; 20 mg/kg intravenous on days 1, 5, 9, 13): 13 days
Toxicity ([7]; MX-1 study, 20 mg/kg intravenous on days 1, 5, 9, 13, body weight reduction): 0/7
